According to ChEMBL document CHEMBL1132749, “Synthesis and antiproliferative evaluation of 7-aminosubstituted pyrroloiminoquinone derivatives” (Bioorg Med Chem Lett, 2000):

How the values were obtained:
L1210 [1] = test: The compound was evaluated in vitro for its antiproliferative activity against the murine L1210 leukemia cell; type: functional, cell-based; conditions: Mus musculus
L1210 [2] = test: Effect of compound on cellular cycle of L1210 leukemia cell; non specific; type: functional, cell-based; conditions: Mus musculus

Compound | IC50 (L1210 [1]) [nM] | Effect (L1210 [2])
NC1=CC2=NCCc3c[nH]c(c32)C1=O [MAKALUVAMINE I] | 250 | non specific
O=C1C(NCCc2c[nH]c3ccccc23)=CC2=NCCc3c[nH]c1c32 | 5300 | non specific

Continued, in another order:

IC50 (L1210 [1]) [nM] | Compound | Effect (L1210 [2])
380 | O=C1C(NCCN2CCCC2)=CC2=NCCc3c[nH]c1c32 | non specific
300 | CN(C)CCNC1=CC2=NCCc3c[nH]c(c32)C1=O | non specific
2100 | O=C1C(NCCc2ccc(O)cc2)=CC2=NCCc3c[nH]c1c32 | non specific
